pIC50, pKd: −log10 of the molar value. Read-outs that look alike come from different tables or passages of the source.
Columns and labels:
human hepatocytes = experiment: Metabolism in cultured hepatocytes; assay type: in vitro ADME
[1] = SAFETYscan off-target panel, all targets; details: 10 μM; except 5-HT2b-receptor
Procedure: (§1) The SAFETYscan™ (DiscoverX) is used for rapid testing of any compound against a panel that includes well-known membrane proteins of importance for drug development such as selected voltage-gated ion channels, G-protein coupled receptors, neurotransmitter transporters and also a selected group of purified cellular enzymes.
(§2) Cell lines engineered to express individual transmembrane receptor proteins such as the muscarinic acetylcholine receptor or the dopamine D1 receptor were grown in culture in their standard growth medium until reaching confluence. […] The experiment also contains controls for comparison including known agonists and antagonists of the targeted membrane proteins.
(§3) For assays using purified enzymes, an enzyme assay is set up in standard reaction buffer and necessary indicators for activity such as co-factors, buffers and synthetic substrates. […] As positive controls, a binding assay using Rho kinase (ROCK) was included in the panel. Other targets in the panel included G-protein coupled receptors, nuclear hormone receptors, intracellular non-kinase enzymes, ion channels, and neurotransmitter transporters. The specific targets were chosen because of their previous known associations with being the source of problematic off-target effects in cellular or whole animal studies.

ROCK1 [2] = target: ROCK1 (Homo sapiens (Human), UniProt Q13464); experiment: biochemical
Procedure: The assay is performed by combining the DNA-tagged kinase, immobilized ligand, and a test compound. The ability of the test compound to compete with the immobilized ligand is measured via quantitative PCR of the DNA tag.
The highest concentration tested was 30 μM.

5-HT2b-receptor = 5-HT2b-receptor (Homo sapiens (Human), UniProt P41595); experiment: SAFETYscan off-target panel; assay type: cell-based; details: 10 μM
Procedure: as §1, §2, §3

canine hepatocytes = experiment: Metabolism in cultured hepatocytes; assay type: in vitro ADME; details: Dog hepatocytes
ROCK2 = ROCK2 (Homo sapiens (Human), UniProt O75116); experiment: Direct filter-binding radiometric kinase assay, IC50 determination; assay type: biochemical
[3] = Brain penetration after IV, IP or PO administration in C57BL/6 mice; assay type: in vivo, mouse; details: IV 5 mg/kg, IP 10 mg/kg, PO 30 mg/kg
Procedure: To determine the plasma concentrations and pharmacokinetics of the test compounds and test article following a single intravenous (IV) (5 mg/kg), intraperitoneal (IP) (10 mg/kg), or oral dose (PO) (30 mg/kg) administration to C57BL/6 male mice, the following testing [WAS/IS] performed according to the conductions set forth in Table 14.
The test drug is provided once as follows: Each I.V. dosing syringe is weighed loaded and unloaded to at least 4 decimal places. The actual dose (5 mg/kg) administered to the animal is the difference between the loaded and unloaded dosing syringe weights. Each IP dosing syringe is weighed loaded and unloaded to at least 4 decimal places. […]
Following I.V. dose administration, whole brain is collected following cardiocentesis from 4 animals at each of the following time points post-dose: 0.083 hr, 0.5 hr, 2 hr, 6 hr, 12 hr, and 24 hr. […] Whole brain is rinsed in 1×PBS, the tissue weight recorded and snap frozen in pre-labeled tubes using liquid nitrogen. In addition, whole brain from 5 naïve mice is harvested at 24 hr, rinsed in 1×PBS, the tissue weight recorded and snap frozen in pre-labeled tubes using liquid nitrogen.
Samples are analyzed by LC/MS/MS using an Agilent 6410 mass spectrometer coupled with an Agilent 1200 HPLC and a CTC PAL chilled autosampler, all controlled by MassHunter software (Agilent). […]

[4] = test system: Rho/ROCK activity (MLC2 diphosphorylation) in human brain microvascular endothelial cells; experiment: LPA-treated hBMVECs, pMLC2 T18/S19 immunoblot; assay type: cell-based; details: 20 μM LPA, Example 16, present tense
Procedure: Cells are exposed to each dose for 1 hr, and are then stimulated with 20 μM LPA for either 5 min or 1 hr as described below. All experiments are conducted in triplicate and analyzed by 2 independent assessors blinded to both cell line and treatment.
Cells are subjected to biochemical analysis of diphosphorylated MLC2 (Threonine 18/Serine 19 phosphorylation sites) and phosphorylated cofilin (Serine 9 phosphorylation site) using SDS-PAGE and immunoblotting. Cells are plated in 24-well tissue culture plates coated with 70 μg/ml rat collagen-1 (Corning) and grown in ENDO-growth media (Neuromics) for 3 days at 37° C./5% CO2 until confluency. […] The medium is exchanged for ENDO basal media supplemented with 1% HSA, 20 μM of LPA (Santa Cruz Biotech; Santa Cruz, Calif.) and the appropriate amount of compound being tested. After 5 min, the medium is aspirated and the cells are briefly washed with 1×PBS. Proteins are extracted from cells by lysis with RIPA buffer supplemented with complete protease/phosphatase inhibitor (HALT, Thermo Fisher Scientific), reduced and denatured using Laemmli sample buffer (BioRad; Hercules, Calif., beta-mercaptoethanol and subjected to SDS-PAGE.
Denatured samples are electrophoresed in reducing 10% Bis-Tris-PA gels (Novex; Thermo-Fisher), and are transferred onto 0.25 μm PVDF membranes (EMD Millipore). Membranes are probed using amti-pMLC2 T18/S19 (1:500; Cell Signaling) or anti-pCofilin (1:500, Cell Signaling S9) and anti-glyceraldehyde 3-phosphate dehydrogenase loading control (GAPDH, 1:10000; Abcam, Cambridge, Mass.). Protein levels are detected using a chemiluminescence substrate (Super Signal West, ThermoFisher) and images are captured using a FluoroChem SP Imaging System.

[5] = test system: Rho/ROCK activity (MLC2 diphosphorylation) in HUVECs; experiment: LPA-treated HUVECs, pMLC2 T18/S19 immunoblot; assay type: cell-based, human
Procedure: Cell lines were exposed to each dose for 1 hr, and then are stimulated with 20 μM LPA for either 5 min or 1 hr as described below. All experiments were conducted in triplicate and analyzed by two independent assessors blinded to both cell line and treatment.
Cells were subjected to biochemical analysis of diphosphorylated MLC2 (Threonine 18/Serine 19 phosphorylation sites) and cofilin (Serine 9 phosphorylation site) using SDS-PAGE and immunoblotting. Cells were plated in 24-well tissue culture plates coated with 70 μg/ml rat collagen-1 (Corning; Corning, N.Y.), and grown for 2 d to 3 d at 37° C./5% CO2 until confluency. […] Then medium was exchanged for Medium 200 supplemented with 0.1% HSA (Sigma-Aldrich) and 20 μM of LPA (Santa Cruz Biotech; Santa Cruz, Calif.) and incubated for 5 min. After LPA stimulation, proteins were extracted from cells by lysis with RIPA buffer supplemented with HALT complete protease/phosphatase inhibitor (ThermoFisher, Waltham, Mass.), reduced and denatured using Laemmli sample buffer (BioRad, Hercules, Calif.)/beta-mercaptoethanol and subjected to SDS-PAGE.
Denatured samples were electrophoresed in reducing 10% Bis-Tris-gels polyacrylamide gels (Novex; Thermo-Fisher, Waltham, Mass.) and were transferred onto 0.25 μm PVDF membranes (EMD Millipore, Billerica, Mass.). Membranes are probed using amti-pMLC2 T18/S19 (1:500; Cell Signaling, Danvers, Mass.) or anti-pCofilin S9 (1:500, Cell Signaling, Danvers, Mass.) and anti-glyceraldehyde 3-phosphate dehydrogenase loading control (GAPDH, 1:10000; Abcam). Protein levels were detected using chemiluminescence substrate (Super Signal West, ThermoFisher, Waltham, Mass.) and images captured using a FluoroChem SP Imaging System.

ROCK1 [6] = experiment: KINOMEscan kinome screen; details: percent of negative control binding; first ROCK1 row
Description: (§4) The KINOMEscan™ screening platform (DiscoverX, Fremont, Calif.) employs a novel active site-directed competition binding assay to quantitatively measure interactions between test compounds and more than 450 human kinases and disease relevant mutant variants. […] Compounds that bind the kinase active site and directly (sterically) or indirectly (allosterically) prevent kinase binding to the immobilized ligand, will reduce the amount of kinase captured on the solid support. […] Screening “hits” are identified by measuring the amount of kinase captured in test versus control samples by using a quantitative, precise and ultra-sensitive qPCR method that detects the associated DNA label.
(§5) Kinase-tagged T7 phage strains were grown in parallel in 24-well blocks in an E. coli host derived from the BL21 strain. E. coli were grown to log-phase and infected with T7 phage from a frozen stock (multiplicity of infection=0.4) and incubated with shaking at 32° C. until lysis (90-150 minutes). The lysates were centrifuged (6,000×g) and filtered (0.2 μm) to remove cell debris. The remaining kinases were produced in HEK-293 cells and subsequently tagged with DNA for qPCR detection (Wein, et al. (2016) Nat. Comm. 7). […] Test compounds were prepared as 40× stocks in 100% DMSO and directly diluted into the assay. All reactions were performed in polypropylene 384-well plates in a final volume of 0.02 ml.

ROCK1 [7] = details: percent of negative control binding; second row printed ROCK1, text says ROCK1 and ROCK2
Description: as §4, §5

GCN = experiment: KINOMEscan kinome screen; parameters: species or system human; details: percent of negative control binding
Description: as §4, §5

AMPK (1 and 2) = experiment: KINOMEscan kinome screen; parameters: species or system human; details: percent of negative control binding; 100% equals no interference
Description: as §4, §5

Chain of ROCK1 (Homo sapiens (Human), UniProt Q13464) (Q13464 2-1354 limits assumed): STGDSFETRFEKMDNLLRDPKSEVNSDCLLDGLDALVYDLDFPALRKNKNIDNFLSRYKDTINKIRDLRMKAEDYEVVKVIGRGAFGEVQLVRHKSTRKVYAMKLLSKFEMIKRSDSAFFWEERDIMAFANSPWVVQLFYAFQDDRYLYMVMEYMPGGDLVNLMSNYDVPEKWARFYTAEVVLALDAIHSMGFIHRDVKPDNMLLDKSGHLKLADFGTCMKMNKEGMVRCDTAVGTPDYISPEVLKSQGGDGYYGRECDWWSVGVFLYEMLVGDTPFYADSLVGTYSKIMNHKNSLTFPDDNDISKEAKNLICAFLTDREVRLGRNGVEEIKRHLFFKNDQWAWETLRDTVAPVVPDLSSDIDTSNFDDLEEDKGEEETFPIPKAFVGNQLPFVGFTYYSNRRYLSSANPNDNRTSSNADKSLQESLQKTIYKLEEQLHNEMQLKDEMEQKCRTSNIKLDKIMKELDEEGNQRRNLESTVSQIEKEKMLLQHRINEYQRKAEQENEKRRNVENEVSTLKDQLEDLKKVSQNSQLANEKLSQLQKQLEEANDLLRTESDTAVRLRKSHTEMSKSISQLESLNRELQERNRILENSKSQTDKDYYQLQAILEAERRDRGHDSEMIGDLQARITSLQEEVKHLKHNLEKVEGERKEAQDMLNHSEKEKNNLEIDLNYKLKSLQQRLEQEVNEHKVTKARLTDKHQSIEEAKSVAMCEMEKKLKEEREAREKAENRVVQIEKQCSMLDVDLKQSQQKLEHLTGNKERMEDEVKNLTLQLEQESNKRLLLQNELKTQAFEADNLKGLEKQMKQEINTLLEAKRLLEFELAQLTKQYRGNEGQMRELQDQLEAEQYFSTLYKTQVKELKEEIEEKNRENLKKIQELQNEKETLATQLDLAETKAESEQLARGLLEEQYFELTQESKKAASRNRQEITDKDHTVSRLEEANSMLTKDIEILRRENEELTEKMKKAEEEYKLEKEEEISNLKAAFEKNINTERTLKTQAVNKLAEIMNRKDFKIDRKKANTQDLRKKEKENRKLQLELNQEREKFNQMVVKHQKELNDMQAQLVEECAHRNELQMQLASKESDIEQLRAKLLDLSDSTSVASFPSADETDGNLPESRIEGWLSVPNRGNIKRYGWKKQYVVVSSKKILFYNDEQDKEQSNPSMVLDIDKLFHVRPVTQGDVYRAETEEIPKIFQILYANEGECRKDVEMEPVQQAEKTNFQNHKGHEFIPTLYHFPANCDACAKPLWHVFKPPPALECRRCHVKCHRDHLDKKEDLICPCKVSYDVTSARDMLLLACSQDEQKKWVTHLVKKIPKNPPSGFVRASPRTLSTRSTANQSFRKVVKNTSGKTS
Chain of 5-HT2b-receptor (P41595 whole entry): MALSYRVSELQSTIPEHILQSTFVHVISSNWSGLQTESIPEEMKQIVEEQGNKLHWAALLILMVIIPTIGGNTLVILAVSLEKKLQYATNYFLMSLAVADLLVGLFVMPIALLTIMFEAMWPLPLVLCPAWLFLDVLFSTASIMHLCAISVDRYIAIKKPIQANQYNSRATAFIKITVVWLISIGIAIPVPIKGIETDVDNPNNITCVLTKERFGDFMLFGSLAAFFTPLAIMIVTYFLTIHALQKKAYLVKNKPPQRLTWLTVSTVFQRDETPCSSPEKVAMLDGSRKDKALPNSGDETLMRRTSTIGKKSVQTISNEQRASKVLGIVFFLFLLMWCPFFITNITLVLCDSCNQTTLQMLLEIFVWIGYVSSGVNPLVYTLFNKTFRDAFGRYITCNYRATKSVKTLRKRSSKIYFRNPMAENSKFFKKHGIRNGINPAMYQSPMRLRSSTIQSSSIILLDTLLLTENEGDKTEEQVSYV

Structure (SMILES): C[C@@H](N)C1CCN(S(=O)(=O)c2cccc3cnccc23)CC1 [BA-1049 (R)]
- ½ Life (human hepatocytes): 41.7 min
- activity against targets in the total SAFETYscan [1]: no activity against any of the targets in the total SAFETYscan™
- pKd (ROCK1 [2]; ROCK1 KD, average of duplicate determinations, Table 5): 7.00
- pKd (ROCK1 [2]; ROCK1 Kd, Table 1): 6.96
- interaction with the 5-HT2b-receptor (5-HT2b-receptor): potential antagonistic interaction
- metabolism by hepatocytes (canine hepatocytes): do not show any detectable metabolism
- ½ Life (canine hepatocytes): >480 min
- pIC50 (ROCK2; 10 μM ATP, Table 2, read-out: Compound IC50 ROCK2): 6.62
- pIC50 (ROCK2; Compound IC50 ROCK2 10 μM ATP, CRO Eurofins, 10 μM ATP): 6.62
- pIC50 (ROCK2; Compound IC50 ROCK2 10 μM ATP, CRO Reaction Biology, 10 μM ATP): 6.47
- pIC50 (ROCK2; Compound IC50 ROCK2 15 μM ATP, Km ATP 15 μM, Table 3): 6.47
- pIC50 (ROCK2; Compound IC50 ROCK2 15 μM ATP, Km ATP 15 μM, Table 7): 6.47
- pIC50 (ROCK2; read-out: Compound IC50 ROCK2 10 μM ATP, CRO Eurofins, 10 μM ATP): 6.62
- penetration into the brain [3]: able to penetrate the brain by the three routes of administration

Structure (SMILES): C[C@@H](N)C1CCN(S(=O)(=O)c2cccc3c(=O)[nH]ccc23)CC1 [1-hydroxy-BA-1049 (R)]
- concentration fully abolishing MLC2 diphosphorylation [4]: ≥ 10 µM
- effect on MLC2 diphosphorylation (pMLC2 T18/S19) ([4]; no data shown): reduce MLC2 diphosphorylation
- concentration fully abolishing MLC2 diphosphorylation ([5]; 20 μM LPA): ≥ 10 µM
- effect on MLC2 diphosphorylation (pMLC2 T18/S19) ([5]; 1-100 μM 1 hr, 20 μM LPA 5 min): reduce MLC2 diphosphorylation
- % Negative Binding, ROCK1 (ROCK1 [6]): 0.15%
- % Negative Binding, ROCK1 (ROCK1 [7]): 0.35%
- % Negative Binding, GCN (GCN): 96%
- % Negative Binding, AMPK (1 and 2) (AMPK (1 and 2)): 100%
